Source: ChEMBL document CHEMBL6092149, “Discovery of 1(2H)-phthalazinone and 1(2H)-isoquinolinone derivatives as potent hematopoietic progenitor kinase 1 (HPK1) inhibitors” (Eur J Med Chem, 2024)
Values belong to the compound of their own block, whether it stands above or below them.

Legend:
[1] = molecular target: T1, Mitogen-activated protein kinase kinase kinase kinase 1 (Homo sapiens, UniProt Q92918); assay: Inhibition of N-terminal DYKDDDDK recombinant human HPK1 (1 to 346 residues) expressed in Sf21 insect cells preincubated for 10 min followed by fluorescein PKC and ATP addition and measured after 90 min by Envision2104 Multilabel Reader analysis
Target sequence in this assay (Q92918 whole entry, the tested form may be a part): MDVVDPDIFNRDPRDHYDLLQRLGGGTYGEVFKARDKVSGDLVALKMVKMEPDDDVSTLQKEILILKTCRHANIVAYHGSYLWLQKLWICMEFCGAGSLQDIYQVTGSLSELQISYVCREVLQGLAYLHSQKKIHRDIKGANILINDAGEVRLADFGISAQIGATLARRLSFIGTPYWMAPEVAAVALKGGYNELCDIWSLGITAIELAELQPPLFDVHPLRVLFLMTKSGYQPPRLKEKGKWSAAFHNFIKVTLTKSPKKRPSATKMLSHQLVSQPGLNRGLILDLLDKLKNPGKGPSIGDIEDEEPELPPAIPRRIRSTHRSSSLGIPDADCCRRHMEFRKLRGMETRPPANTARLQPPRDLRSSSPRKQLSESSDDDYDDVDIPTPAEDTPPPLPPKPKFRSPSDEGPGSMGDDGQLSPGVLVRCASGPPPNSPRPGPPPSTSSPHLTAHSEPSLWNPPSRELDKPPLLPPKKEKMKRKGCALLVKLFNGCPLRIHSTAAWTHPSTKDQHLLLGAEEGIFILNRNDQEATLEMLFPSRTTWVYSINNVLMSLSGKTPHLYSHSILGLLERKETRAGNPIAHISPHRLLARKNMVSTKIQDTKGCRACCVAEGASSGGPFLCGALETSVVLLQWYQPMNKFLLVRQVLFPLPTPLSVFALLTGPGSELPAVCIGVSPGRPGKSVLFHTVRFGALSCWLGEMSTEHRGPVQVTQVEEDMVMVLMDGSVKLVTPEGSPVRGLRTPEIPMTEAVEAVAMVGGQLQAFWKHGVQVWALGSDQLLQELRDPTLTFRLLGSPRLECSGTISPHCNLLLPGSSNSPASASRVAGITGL

[2] = molecular target: T1, Mitogen-activated protein kinase kinase kinase kinase 1; assay: Inhibition of HPK1 in human Jurkat cells assessed as reduction in SLP76 phosphorylation pretreated for 1 hr followed by anti-CD3 addition and measured after 15 min by ELISA method; assay type: cell-based
Target sequence in this assay (Q92918 whole entry, the tested form may be a part): as above

[3] = molecular target: T1, Mitogen-activated protein kinase kinase kinase kinase 1; assay: Inhibition of HPK1 in human T cells assessed as increase in IL-2 secretion measured after 24 hrs by ELISA method; assay type: cell-based, T-cell; conditions: for Activity: T-cell
[4] = Half life in overnight fasted mouse at 1 mg/kg, iv; assay type: ADME, organism-based; conditions: in vivo
[5] = Plasma clearance in overnight fasted mouse at 1 mg/kg, iv; assay type: ADME, organism-based
[6] = AUC (0 to 24 hrs) in overnight fasted mouse at 10 mg/kg, po; assay type: ADME, organism-based; conditions: in vivo
[7] = Oral bioavailability in in overnight fasted mouse at 10 mg/kg; assay type: ADME, organism-based; conditions: in vivo
[8] = Cmax in overnight fasted mouse at 10 mg/kg, po; assay type: ADME, organism-based; conditions: in vivo
[9] = Half life in overnight fasted rat at 1 mg/kg, iv; assay type: ADME, organism-based; conditions: in vivo
[10] = Plasma Clearance in overnight fasted rat at 1 mg/kg, iv; assay type: ADME, organism-based
[11] = Cmax in overnight fasted rat at 10 mg/kg, po; assay type: ADME, organism-based; conditions: in vivo
[12] = AUC (0 to 24 hrs) in overnight fasted rat at 10 mg/kg, po; assay type: ADME, organism-based; conditions: in vivo
[13] = Oral bioavailability in in overnight fasted rat at 10 mg/kg; assay type: ADME, organism-based; conditions: in vivo
[14] = molecular target: Mitogen-activated protein kinase kinase kinase kinase 2 (Homo sapiens, UniProt Q12851); assay: Inhibition of N-terminal GST tagged recombinant human MAP4K2 (1 to 820 residues) expressed in Sf21 insect cells preincubated for 10 min followed by fluorescein PKC and ATP addition and measured after 90 min by Envision2104 Multilabel Reader analysis
[15] = molecular target: Mitogen-activated protein kinase kinase kinase kinase 3 (Homo sapiens, UniProt Q8IVH8); assay: Inhibition of GST-tagged recombinant human MAP4K3 (1 to 380 residues) extracted from Baculovirus infected Sf9 insect cells preincubated for 10 min followed by fluorescein PKC and ATP addition and measured after 90 min by Envision2104 Multilabel Reader analysis
[16] = molecular target: Mitogen-activated protein kinase kinase kinase kinase 4 (Homo sapiens, UniProt O95819); assay: Inhibition of N-terminal GST-tagged recombinant human MAP4K4 (1 to 328 residues) expressed in Sf21 insect cells preincubated for 10 min followed by fluorescein PKC and ATP addition and measured after 90 min by Envision2104 Multilabel Reader analysis
[17] = molecular target: Mitogen-activated protein kinase kinase kinase kinase 5 (Homo sapiens, UniProt Q9Y4K4); assay: Inhibition of GST-tagged recombinant human full length MAP4K5 expressed in insect cells preincubated for 10 min followed by fluorescein PKC and ATP addition and measured after 90 min by Envision2104 Multilabel Reader analysis; set-up: species or system Insect cell
Misshapen-like kinase 1 = Misshapen-like kinase 1 (Homo sapiens, UniProt Q8N4C8); assay: Inhibition of N-terminal GST-tagged recombinant human MAP4K6 (7 to 139 residues) expressed in Sf21 insect cells preincubated for 10 min followed by fluorescein PKC and ATP addition and measured after 90 min by Envision2104 Multilabel Reader analysis
Sequence of Misshapen-like kinase 1 (Q8N4C8 whole entry, the tested form may be a part): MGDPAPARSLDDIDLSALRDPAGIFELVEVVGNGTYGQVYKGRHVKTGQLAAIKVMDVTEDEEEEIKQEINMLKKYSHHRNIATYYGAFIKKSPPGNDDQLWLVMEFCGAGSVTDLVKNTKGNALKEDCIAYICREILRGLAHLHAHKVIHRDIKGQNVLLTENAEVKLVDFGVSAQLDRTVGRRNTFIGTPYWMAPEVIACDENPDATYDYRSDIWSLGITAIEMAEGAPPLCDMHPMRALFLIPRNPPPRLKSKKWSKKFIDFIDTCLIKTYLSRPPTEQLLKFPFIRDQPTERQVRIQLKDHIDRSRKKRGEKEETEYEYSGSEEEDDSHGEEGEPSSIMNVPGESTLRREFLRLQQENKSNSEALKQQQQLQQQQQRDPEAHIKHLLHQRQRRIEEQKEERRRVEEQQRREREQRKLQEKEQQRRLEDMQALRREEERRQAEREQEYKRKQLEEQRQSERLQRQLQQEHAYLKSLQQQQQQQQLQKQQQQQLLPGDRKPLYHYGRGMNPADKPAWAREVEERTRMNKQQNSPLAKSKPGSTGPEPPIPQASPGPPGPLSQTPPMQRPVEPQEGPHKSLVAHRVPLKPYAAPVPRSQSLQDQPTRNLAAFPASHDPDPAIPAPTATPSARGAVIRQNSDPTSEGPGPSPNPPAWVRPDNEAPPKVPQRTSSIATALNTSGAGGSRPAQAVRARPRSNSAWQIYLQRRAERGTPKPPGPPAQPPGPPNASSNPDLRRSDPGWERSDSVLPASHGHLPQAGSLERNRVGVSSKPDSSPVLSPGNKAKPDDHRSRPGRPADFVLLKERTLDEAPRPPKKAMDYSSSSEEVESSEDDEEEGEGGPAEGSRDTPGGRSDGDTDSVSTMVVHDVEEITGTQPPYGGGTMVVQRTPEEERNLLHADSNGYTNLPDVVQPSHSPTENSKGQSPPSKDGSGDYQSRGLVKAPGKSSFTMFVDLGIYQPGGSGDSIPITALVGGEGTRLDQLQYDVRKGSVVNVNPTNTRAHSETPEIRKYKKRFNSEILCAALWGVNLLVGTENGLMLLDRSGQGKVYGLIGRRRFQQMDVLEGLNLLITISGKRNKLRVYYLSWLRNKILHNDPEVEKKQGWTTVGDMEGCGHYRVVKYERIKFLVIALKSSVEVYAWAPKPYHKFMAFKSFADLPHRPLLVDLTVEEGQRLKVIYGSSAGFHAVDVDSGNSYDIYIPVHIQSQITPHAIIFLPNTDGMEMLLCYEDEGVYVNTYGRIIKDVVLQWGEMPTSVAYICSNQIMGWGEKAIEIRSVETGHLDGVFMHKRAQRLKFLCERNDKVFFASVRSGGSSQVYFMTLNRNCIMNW

[18] = molecular target: Mitogen-activated protein kinase 3 (Homo sapiens) (UniProt P27361); assay: Inhibition of ERK1 (unknown origin) at 1000 nM incubated for 1 hrs by active site-directed competition binding assay relative to control
Sequence of Mitogen-activated protein kinase 3 (Homo sapiens) (P27361 whole entry): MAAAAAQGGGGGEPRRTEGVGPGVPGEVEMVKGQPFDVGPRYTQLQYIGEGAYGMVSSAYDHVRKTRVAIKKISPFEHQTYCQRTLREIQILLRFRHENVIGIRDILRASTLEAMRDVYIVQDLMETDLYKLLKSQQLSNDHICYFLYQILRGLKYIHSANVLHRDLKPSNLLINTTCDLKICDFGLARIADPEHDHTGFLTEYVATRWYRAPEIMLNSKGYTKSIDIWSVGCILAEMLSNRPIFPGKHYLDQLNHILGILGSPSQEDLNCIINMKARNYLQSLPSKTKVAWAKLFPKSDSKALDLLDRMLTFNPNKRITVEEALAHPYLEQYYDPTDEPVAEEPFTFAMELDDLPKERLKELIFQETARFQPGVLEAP

[19] = molecular target: Mitogen-activated protein kinase 1 (Homo sapiens) (UniProt P28482); assay: Inhibition of ERK2 (unknown origin) at 1000 nM incubated for 1 hrs by active site-directed competition binding assay relative to control
[20] = molecular target: Inhibitor of nuclear factor kappa-B kinase subunit beta (Homo sapiens) (UniProt O14920); assay: Inhibition of IKKbeta (unknown origin) at 1000 nM incubated for 1 hrs by active site-directed competition binding assay relative to control
[21] = molecular target: Tyrosine-protein kinase ITK/TSK (Homo sapiens) (UniProt Q08881); assay: Inhibition of ITK (unknown origin) at 1000 nM incubated for 1 hrs by active site-directed competition binding assay relative to control
[22] = molecular target: Mitogen-activated protein kinase 8 (Homo sapiens) (UniProt P45983); assay: Inhibition of JNK1 (unknown origin) at 1000 nM incubated for 1 hrs by active site-directed competition binding assay relative to control
[23] = molecular target: Mitogen-activated protein kinase 9 (Homo sapiens) (UniProt P45984); assay: Inhibition of JNK2 (unknown origin) at 1000 nM incubated for 1 hrs by active site-directed competition binding assay relative to control
Sequence of Mitogen-activated protein kinase 9 (Homo sapiens) (P45984 whole entry, looked up): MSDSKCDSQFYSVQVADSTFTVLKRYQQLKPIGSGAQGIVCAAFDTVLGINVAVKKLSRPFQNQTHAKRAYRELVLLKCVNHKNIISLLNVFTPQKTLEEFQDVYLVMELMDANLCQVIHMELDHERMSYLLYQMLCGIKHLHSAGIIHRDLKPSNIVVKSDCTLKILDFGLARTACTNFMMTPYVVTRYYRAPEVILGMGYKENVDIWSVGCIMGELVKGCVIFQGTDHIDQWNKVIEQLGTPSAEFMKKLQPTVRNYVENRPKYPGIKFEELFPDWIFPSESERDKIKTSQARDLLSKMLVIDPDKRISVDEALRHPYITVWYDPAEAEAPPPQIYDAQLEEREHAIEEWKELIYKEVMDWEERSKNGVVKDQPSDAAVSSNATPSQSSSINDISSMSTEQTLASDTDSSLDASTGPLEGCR

[24] = molecular target: Mitogen-activated protein kinase 14 (Homo sapiens) (UniProt Q16539); assay: Inhibition of P38alpha (unknown origin) at 1000 nM incubated for 1 hrs by active site-directed competition binding assay relative to control
[25] = molecular target: Mitogen-activated protein kinase 11 (Homo sapiens) (UniProt Q15759); assay: Inhibition of P38beta (unknown origin) at 1000 nM incubated for 1 hrs by active site-directed competition binding assay relative to control
[26] = molecular target: Mitogen-activated protein kinase 12 (Homo sapiens) (UniProt P53778); assay: Inhibition of P38gamma (unknown origin) at 1000 nM incubated for 1 hrs by active site-directed competition binding assay relative to control
[27] = molecular target: Mitogen-activated protein kinase 13 (Homo sapiens) (UniProt O15264); assay: Inhibition of P38delta (unknown origin) at 1000 nM incubated for 1 hrs by active site-directed competition binding assay relative to control
Sequence of Mitogen-activated protein kinase 13 (Homo sapiens) (O15264 whole entry): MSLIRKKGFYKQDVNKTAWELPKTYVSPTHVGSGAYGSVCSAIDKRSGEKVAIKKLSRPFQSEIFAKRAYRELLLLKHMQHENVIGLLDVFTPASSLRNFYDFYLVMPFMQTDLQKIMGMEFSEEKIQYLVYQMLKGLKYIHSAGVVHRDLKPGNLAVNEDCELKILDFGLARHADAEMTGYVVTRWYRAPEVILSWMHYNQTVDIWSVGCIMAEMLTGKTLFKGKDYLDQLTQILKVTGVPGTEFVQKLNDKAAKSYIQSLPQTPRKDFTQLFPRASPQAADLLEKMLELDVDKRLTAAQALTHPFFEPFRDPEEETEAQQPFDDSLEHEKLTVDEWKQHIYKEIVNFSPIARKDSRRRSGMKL

[28] = molecular target: RAF proto-oncogene serine/threonine-protein kinase (Homo sapiens) (UniProt P04049); assay: Inhibition of RAF1 (unknown origin) at 1000 nM incubated for 1 hrs by active site-directed competition binding assay relative to control
Homo sapiens = species: Homo sapiens; assay: Inhibition of TAK1 (unknown origin) at 1000 nM incubated for 1 hrs by active site-directed competition binding assay relative to control
[29] = molecular target: Tyrosine-protein kinase ZAP-70 (Homo sapiens) (UniProt P43403); assay: Inhibition of ZAP70 (unknown origin) at 1000 nM incubated for 1 hrs by active site-directed competition binding assay relative to control
[30] = Inhibition of N-terminal His-tagged recombinant human TAK1(1 to 303 residues) expressed in Sf21 insect cells preincubated for 10 min followed by inactive MEK1 and ATP addition and measured after 90 min by Envision2104 Multilabel Reader analysis
[31] = molecular target: Mitogen-activated protein kinase kinase kinase kinase 1 (Mus musculus) (UniProt P70218); assay: In vivo inhibition of HPK1 in female BALB/c mouse assessed as reduction in SLP76 phosphorylation in spleen at 100 mg/kg qd, ip and measured after 3 hrs post dosing by Western blot analysis relative to control; assay type: functional, organism-based
Sequence of Mitogen-activated protein kinase kinase kinase kinase 1 (Mus musculus) (P70218 whole entry): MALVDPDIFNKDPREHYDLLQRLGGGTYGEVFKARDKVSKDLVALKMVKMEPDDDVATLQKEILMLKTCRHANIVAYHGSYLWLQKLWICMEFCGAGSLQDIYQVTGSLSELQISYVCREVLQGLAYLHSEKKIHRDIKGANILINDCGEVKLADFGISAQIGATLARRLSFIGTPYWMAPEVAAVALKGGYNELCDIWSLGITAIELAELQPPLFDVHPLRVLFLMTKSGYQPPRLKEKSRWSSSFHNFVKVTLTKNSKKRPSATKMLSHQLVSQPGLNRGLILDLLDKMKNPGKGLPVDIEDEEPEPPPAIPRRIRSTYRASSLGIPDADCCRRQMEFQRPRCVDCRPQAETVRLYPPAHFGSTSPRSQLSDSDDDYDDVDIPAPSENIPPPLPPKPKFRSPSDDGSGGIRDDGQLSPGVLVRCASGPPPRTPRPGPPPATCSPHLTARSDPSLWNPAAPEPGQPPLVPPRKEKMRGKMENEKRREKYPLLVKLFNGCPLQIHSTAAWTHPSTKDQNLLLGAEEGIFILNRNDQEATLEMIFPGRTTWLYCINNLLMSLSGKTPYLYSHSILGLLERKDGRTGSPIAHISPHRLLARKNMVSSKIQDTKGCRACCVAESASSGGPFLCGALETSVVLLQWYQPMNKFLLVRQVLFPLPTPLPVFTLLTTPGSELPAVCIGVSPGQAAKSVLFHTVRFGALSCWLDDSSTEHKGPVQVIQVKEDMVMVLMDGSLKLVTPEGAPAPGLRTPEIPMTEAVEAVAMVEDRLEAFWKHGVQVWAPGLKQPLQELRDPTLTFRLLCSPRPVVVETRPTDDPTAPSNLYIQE

[32] = molecular target: Mitogen-activated protein kinase kinase kinase kinase 1 (Mus musculus) (UniProt P70218); assay: In vivo inhibition of HPK1 in female BALB/c mouse assessed as reduction in SLP76 phosphorylation in spleen at 100 mg/kg qd, ip and measured after 24 hrs post dosing by Western blot analysis relative to control; assay type: functional, organism-based
CT26 [33] = assay: Antitumor activity against mouse CT26 cells allografted in female BALB/c mouse assessed as tumor growth inhibition at 30 mg/kg, administered orally twice daily for 2 weeks; assay type: functional; conditions: CT26, 336 h, route po, read-out: TGI
CT26 [34] = assay: Antitumor activity against mouse CT26 cells allografted in female BALB/c mouse assessed as tumor growth inhibition at 3 mg/kg, ip administered twice daily and measured on 13 day in presence of presence of anti-PD-1 relative to control; assay type: functional; conditions: CT26, 312 h, read-out: TGI
[35] = Toxicity against BALB/c mouse allografted with mouse CT26 cells assessed as body weight loss at 30 mg/kg, administered orally twice daily for 2 weeks; assay type: organism-based; conditions: in vivo, po, 336 h
[36] = Toxicity against BALB/c mouse […] with mouse CT26 cells assessed as body weight loss at 3 mg/kg, ip administered twice daily and measured on 13 day in presence of presence of anti-PD-1; assay type: organism-based; conditions: in vivo, 312 h
[37] = Toxicity in CD-1 mouse assessed as body weight loss at 300 mg/kg, po; assay type: organism-based; conditions: in vivo
[38] = Toxicity in CD-1 mouse assessed as body weight loss at 1000 mg/kg, po; assay type: organism-based; conditions: in vivo
[39] = molecular target: T1, Mitogen-activated protein kinase kinase kinase kinase 1; assay: Inhibition of human HPK1 at 1000 nM incubated for 1 hrs by active site-directed competition binding assay relative to control; values are per cent of control
Target sequence in this assay (Q92918 whole entry, looked up, the tested form may be a part): as the sequence (Q92918 whole entry, the tested form may be a part) above

[40] = molecular target: Tyrosine-protein kinase Lck (Homo sapiens) (UniProt P06239); assay: Inhibition of LCK (unknown origin) at 1000 nM incubated for 1 hrs by active site-directed competition binding assay relative to control; values are per cent of control
[41] = molecular target: RAC-beta serine/threonine-protein kinase (Homo sapiens) (UniProt P31751); assay: Inhibition of AKT2 (unknown origin) at 1000 nM incubated for 1 hrs by active site-directed competition binding assay relative to control; values are per cent of control
Sequence of RAC-beta serine/threonine-protein kinase (Homo sapiens) (P31751 whole entry): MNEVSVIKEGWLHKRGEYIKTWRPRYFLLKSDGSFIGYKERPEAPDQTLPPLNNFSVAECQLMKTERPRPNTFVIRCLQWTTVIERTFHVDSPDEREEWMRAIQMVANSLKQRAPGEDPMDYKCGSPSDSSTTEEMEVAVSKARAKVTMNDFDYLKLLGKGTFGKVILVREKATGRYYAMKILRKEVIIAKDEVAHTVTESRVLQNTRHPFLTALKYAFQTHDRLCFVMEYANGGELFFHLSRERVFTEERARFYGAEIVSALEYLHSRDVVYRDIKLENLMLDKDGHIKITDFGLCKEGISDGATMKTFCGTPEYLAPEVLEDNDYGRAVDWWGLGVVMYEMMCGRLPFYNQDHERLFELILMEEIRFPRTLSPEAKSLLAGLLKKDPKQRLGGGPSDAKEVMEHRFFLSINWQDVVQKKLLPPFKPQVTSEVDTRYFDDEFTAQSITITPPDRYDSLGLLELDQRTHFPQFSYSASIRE

[42] = molecular target: RAC-gamma serine/threonine-protein kinase (Homo sapiens) (UniProt Q9Y243); assay: Inhibition of AKT3 (unknown origin) at 1000 nM incubated for 1 hrs by active site-directed competition binding assay relative to control; values are per cent of control
[43] = molecular target: Calcium/calmodulin-dependent protein kinase type IV (Homo sapiens) (UniProt Q16566); assay: Inhibition of CAMK4 (unknown origin) at 1000 nM incubated for 1 hrs by active site-directed competition binding assay relative to control; values are per cent of control
[44] = molecular target: Mitogen-activated protein kinase kinase kinase 1 (Homo sapiens) (UniProt Q13233); assay: Inhibition of MAP3K1 (unknown origin) at 1000 nM incubated for 1 hrs by active site-directed competition binding assay relative to control; values are per cent of control

Compound: Cc1cc2c(-c3cnc4cc(F)ccn34)ccc(Nc3ccc(C4CCOCC4)c(CN(C)C)n3)c2c(=O)[nH]1
IC50 [1]: > 1 µM

Compound: O=c1[nH]ncc2c(-c3cnc4cc(F)ccn34)ccc(Nc3ccc(C4CCOCC4)c(CN4CCC(O)C4)n3)c12 (stereo unspecified)
IC50 [1]: 0.0391 µM | EC50 [3]: 0.223 µM | Activity [3]: Dose-dependent-effect

Compound: O=c1[nH]ncc2c(-c3cnc4cc(F)ccn34)ccc(Nc3ccc(C4CCOCC4)c(CN4CC[C@H](F)C4)n3)c12
IC50 [1]: 0.0054 µM | EC50 [2]: 0.014 µM | EC50 [3]: 0.187 µM | Activity [3]: Dose-dependent-effect | half-life [4]: 30 min | clearance [5]: 104 mL/min/kg | AUC(0-t) [6]: 506 ng·h/mL | bioavailability [7]: 31% | Cmax [8]: 484 ng/mL

Compound: O=C(NCc1nc(Nc2ccc(-c3cnc4cc(F)ccn34)c3cn[nH]c(=O)c23)ccc1C1CCOCC1)NC1CC1
IC50 [1]: > 1 µM

The next lines start with results.

IC50 [1]: 0.02 µM | EC50 [2]: 0.076 µM | EC50 [3]: 0.22 µM | Activity [3]: Dose-dependent-effect | half-life [4]: 24 min | clearance [5]: 159 mL/min/kg | AUC(0-t) [6]: 892 ng·h/mL | bioavailability [7]: 86% | Cmax [8]: 308 ng/mL
Compound: CN(C)Cc1nc(Nc2ccc(-c3cnc4cc(F)ccn34)c3cc[nH]c(=O)c23)ccc1C1CCOCC1

IC50 [1]: > 1 µM
Compound: CN(C)Cc1nc(Nc2ccc(-c3cnc4cc(F)ccn34)c3c(F)c[nH]c(=O)c23)ccc1C1CCOCC1

IC50 [1]: 0.0104 µM | EC50 [2]: 0.041 µM | EC50 [3]: 0.108 µM | Activity [3]: Dose-dependent-effect | half-life [4]: 36 min | clearance [5]: 46 mL/min/kg | AUC(0-t) [6]: 4140 ng·h/mL | bioavailability [7]: 116% | half-life [9]: 48 min | clearance [10]: 67 mL/min/kg | Cmax [11]: 518 ng/mL | AUC(0-t) [12]: 2010 ng·h/mL | bioavailability [13]: 80% | Cmax [8]: 1800 ng/mL | IC50 [14]: 0.448 µM | IC50 [15]: 0.085 µM | IC50 [16]: 0.665 µM | IC50 [17]: 0.104 µM | IC50 (Misshapen-like kinase 1): 0.168 µM | inhibition [18]: 56% | inhibition [19]: 69% | inhibition [20]: 93% | inhibition [21]: 94% | inhibition [22]: 96% | inhibition [23]: 86% | inhibition [24]: 94% | inhibition [25]: 84% | inhibition [26]: 36% | inhibition [27]: 62% | inhibition [28]: 85% | inhibition (Homo sapiens): 1.5% | inhibition [29]: 90% | inhibition [31]: 100% | inhibition [32]: 50% | percent of control [39]: 0.6% | percent of control [40]: 100% | percent of control [41]: 100% | percent of control [42]: 100% | percent of control [43]: 100% | percent of control [44]: 100%
Compound: O=c1[nH]ccc2c(-c3cnc4cc(F)ccn34)ccc(Nc3ccc(C4CCOCC4)c(CN4CC[C@H](F)C4)n3)c12
IC50 [30]: 4.74 µM | inhibition in vivo at 30 mg/kg (CT26 [33]): 42% | inhibition in vivo at 3 mg/kg (CT26 [34]): 95% | Activity [35]: Non-toxic | Activity [36]: Non-toxic | Activity [37]: Non-toxic | Activity [38]: Non-toxic
